Data: patent US10766869B2, “Triazoles for the treatment of demyelinating dieases” (Vertex Pharmaceuticals Incorporated, priority 2015, dated 2020)

Test system: primary rat mixed cortical cells
Assay: In vitro myelination assay (MBP positive myelin strands, fold myelin pixels above background)
Format: cell-based
Details: Rattus norvegicus, relative to baseline of no added compound, read-out: Fold myelin pixels above background; for fold induction at 1 µM: 1.0 μM compound; for fold induction at 10 µM: 10.0 μM compound
How it was run: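 Fourteen-day treatment of primary P1 rat mixed cortical cultures, re-dosed at days 6 and 10, at 1.0 μM and 10.0 μM. MBP immunofluorescence was imaged at 10× and myelin strands quantified by software, normalised to untreated wells as fold above background.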

SMILES | fold induction at 1 µM | fold induction at 10 µM
Cc1cc(Nc2ncn(-c3cc(F)cc(F)c3)n2)nc(NC2CCOC2)c1 (stereo not drawn) [Compound 614, N6-[1-(3,5-difluorophenyl)-1,2,4-triazol-3-yl]-4-methyl-N2-tetrahydrofuran-3-yl-pyridine-2,6-diamine] | 1 to 10 | 1 to 10
Cc1cc(Nc2ncn(-c3ccc(F)c(F)c3)n2)cc(OCC2(C)COC2)c1 [Compound 615, 1-(3,4-difluorophenyl)-N-[3-methyl-5-[(3-methyloxetan-3-yl)methoxy]phenyl]-1,2,4-triazol-3-amine] | 10 to 100 | 10 to 100
Cc1cc(N2CC(N3CCOCC3)C2)cc(Nc2ncn(-c3cc(F)cc(F)c3)n2)n1 [Compound 616, N-[1-(3,5-difluorophenyl)-1,2,4-triazol-3-yl]-6-methyl-4-(3-morpholinoazetidin-1-yl)pyridin-2-amine] | 1 to 10 | ≤ 1
Cc1cc(Nc2ncn(-c3cc(F)cc(F)c3)n2)cc(N2CC(N3CCC(F)CC3)C2)c1 [Compound 617, 1-(3,5-difluorophenyl)-N-[3-[3-(4-fluoro-1-piperidyl)azetidin-1-yl]-5-methyl-phenyl]-1,2,4-triazol-3-amine] | 10 to 100 | 10 to 100
Cc1cc(Nc2ncn(-c3cc(F)cc(F)c3)n2)cc(N2CC(N3C[C@@H](C)O[C@@H](C)C3)C2)c1 [Compound 618, 1-(3,5-difluorophenyl)-N-[3-[3-[(2R,6S)-2,6-dimethylmorpholin-4-yl]azetidin-1-yl]-5-methyl-phenyl]-1,2,4-triazol-3-amine] | 10 to 100 | 10 to 100
COCC1CCN(c2cc(C)cc(Nc3ncn(-c4cc(F)cc(F)c4)n3)n2)CC1 [Compound 619, N-[1-(3,5-difluorophenyl)-1,2,4-triazol-3-yl]-6-[4-(methoxymethyl)-1-piperidyl]-4-methyl-pyridin-2-amine] | 1 to 10 | 1 to 10
Cc1cc(Nc2ncn(-c3cc(F)cc(F)c3)n2)cc(OC2CCCN(C3COC3)C2)c1 (stereo not drawn) [Compound 620, 1-(3,5-difluorophenyl)-N-[3-methyl-5-[[1-(oxetan-3-yl)-3-piperidyl]oxy]phenyl]-1,2,4-triazol-3-amine] | 10 to 100 | 1 to 10
Fc1cc(-n2cnc(Nc3cc(C(F)F)cc(N4CCN(C5COC5)CC4)n3)n2)ccc1Cl [Compound 621, N-[1-(4-chloro-3-fluoro-phenyl)-1,2,4-triazol-3-yl]-4-(difluoromethyl)-6-[4-(oxetan-3-yl)piperazin-1-yl]pyridin-2-amine] | 10 to 100 | 1 to 10
Cc1cc(Nc2ncn(-c3ccc(F)cc3)n2)cc(N2CCN(C3COC3)CC2)c1 [Compound 622, 1-(4-fluorophenyl)-N-[3-methyl-5-[4-(oxetan-3-yl)piperazin-1-yl]phenyl]-1,2,4-triazol-3-amine] | 1 to 10 | 1 to 10
COc1ccc(-n2cnc(Nc3cc(C)cc(N4CCN(C5COC5)CC4)c3)n2)cc1F [Compound 624, 1-(3-fluoro-4-methoxy-phenyl)-N-[3-methyl-5-[4-(oxetan-3-yl)piperazin-1-yl]phenyl]-1,2,4-triazol-3-amine] | 10 to 100 | ≤ 1
COCc1cc(Nc2ncn(-c3cccc(C(F)(F)F)c3)n2)nc(N2CCN(C3COC3)CC2)c1 [Compound 625, 4-(methoxymethyl)-6-[4-(oxetan-3-yl)piperazin-1-yl]-N-[1-[3-(trifluoromethyl)phenyl]-1,2,4-triazol-3-yl]pyridin-2-amine] | 1 to 10 | 10 to 100
CC(=O)N1CCC(Oc2cc(C)cc(Nc3ncn(-c4ccc(F)c(F)c4)n3)c2)CC1 [Compound 626, 1-[4-[3-[[1-(3,4-difluorophenyl)-1,2,4-triazol-3-yl]amino]-5-methyl-phenoxy]-1-piperidyl]ethanone] | 10 to 100 | ≤ 1
Cc1cc(Nc2ncn(-c3ccc(F)c(F)c3)n2)cc(OCC2CCOCC2)c1 [Compound 627, 1-(3,4-difluorophenyl)-N-[3-methyl-5-(tetrahydropyran-4-ylmethoxy)phenyl]-1,2,4-triazol-3-amine] | 1 to 10 | 10 to 100
Cc1cc(Nc2ncn(-c3cc(F)cc(F)c3)n2)cc(N2C[C@H]3C[C@@H]2CO3)c1 [Compound 628, 1-(3,5-difluorophenyl)-N-[3-methyl-5-[(1R,4R)-2-oxa-5-azabicyclo[2.2.1]heptan-5-yl]phenyl]-1,2,4-triazol-3-amine] | 10 to 100 | 1 to 10
Cc1cc(Nc2ncn(-c3cc(F)cc(F)c3)n2)cc(C2CN(C3COC3)C(C)CO2)c1 (stereo not drawn) [Compound 629, 1-(3,5-difluorophenyl)-N-[3-methyl-5-[5-methyl-4-(oxetan-3-yl)morpholin-2-yl]phenyl]-1,2,4-triazol-3-amine] | 10 to 100 | ≤ 1
Cc1cc(CN2CCN(C3COC3)CC2)c(F)c(Nc2ncn(-c3cc(F)cc(F)c3)n2)c1 [Compound 630, 1-(3,5-difluorophenyl)-N-[2-fluoro-5-methyl-3-[[4-(oxetan-3-yl)piperazin-1-yl]methyl]phenyl]-1,2,4-triazol-3-amine] | 1 to 10 | 1 to 10
Cc1cc(Nc2ncn(-c3cc(F)cc(F)c3)n2)nc(C2=CCNCC2)c1 [Compound 631, N-[1-(3,5-difluorophenyl)-1,2,4-triazol-3-yl]-4-methyl-6-(1,2,3,6-tetrahydropyridin-4-yl)pyridin-2-amine] | 1 to 10 | 1 to 10
Cc1cc(Nc2ncn(-c3ccc(F)c(F)c3)n2)cc(N2CCN(C3(C)COC3)CC2)c1 [Compound 633, 1-(3,4-difluorophenyl)-N-[3-methyl-5-[4-(3-methyloxetan-3-yl)piperazin-1-yl]phenyl]-1,2,4-triazol-3-amine] | 10 to 100 | 10 to 100
Cc1cc(Nc2ncn(-c3cc(F)cc(F)c3)n2)cc(N2CC(N3CCCCC3)C2)c1 [Compound 634, 1-(3,5-difluorophenyl)-N-[3-methyl-5-[3-(1-piperidyl)azetidin-1-yl]phenyl]-1,2,4-triazol-3-amine] | 10 to 100 | 10 to 100
Cc1cc(Nc2ncn(-c3cc(F)cc(F)c3)n2)cc(OC2CCCOC2)c1 (stereo not drawn) [Compound 635, 1-(3,5-difluorophenyl)-N-(3-methyl-5-tetrahydropyran-3-yloxy-phenyl)-1,2,4-triazol-3-amine] | 10 to 100 | 1 to 10
FC(F)c1cccc(-n2cnc(Nc3cc(C(F)(F)F)cc(N4CC(N5CCOCC5)C4)n3)n2)c1 [Compound 636, N-[1-[3-(difluoromethyl)phenyl]-1,2,4-triazol-3-yl]-6-(3-morpholinoazetidin-1-yl)-4-(trifluoromethyl)pyridin-2-amine] | 1 to 10 | 1 to 10
Cc1cc(Nc2ncn(-c3cc(F)cc(F)c3)n2)cc(N2CCCN(C3COC3)CC2)c1 [Compound 637, 1-(3,5-difluorophenyl)-N-[3-methyl-5-[4-(oxetan-3-yl)-1,4-diazepan-1-yl]phenyl]-1,2,4-triazol-3-amine] | 100 to 1000 | ≤ 1
Cc1cc(Nc2ncn(-c3ccc(F)c(F)c3)n2)cc(OC2CCCOC2)c1 (stereo not drawn) [Compound 638, 1-(3,4-difluorophenyl)-N-(3-methyl-5-tetrahydropyran-3-yloxy-phenyl)-1,2,4-triazol-3-amine] | 10 to 100 | 10 to 100
COc1cc(Nc2ncn(-c3cccc(C(F)F)c3)n2)nc(N2CCN(C3COC3)CC2)c1 [Compound 639, N-[1-[3-(difluoromethyl)phenyl]-1,2,4-triazol-3-yl]-4-methoxy-6-[4-(oxetan-3-yl)piperazin-1-yl]pyridin-2-amine] | 1 to 10 | 1 to 10
Cc1cc(Nc2ncn(-c3ccc(F)c(F)c3)n2)cc(OCC2CC(F)(F)C2)c1 [Compound 640, N-[3-[(3,3-difluorocyclobutyl)methoxy]-5-methyl-phenyl]-1-(3,4-difluorophenyl)-1,2,4-triazol-3-amine] | 10 to 100 | 1 to 10
Cc1c(Nc2ncn(-c3cc(F)cc(F)c3)n2)cc(N2CC(N3CCOCC3)C2)cc1OC(C)C [Compound 641, 1-(3,5-difluorophenyl)-N-[3-isopropoxy-2-methyl-5-(3-morpholinoazetidin-1-yl)phenyl]-1,2,4-triazol-3-amine] | 10 to 100 | 1 to 10
Fc1cc(Nc2ncn(-c3ccccn3)n2)cc(N2CCN(C3COC3)CC2)c1 [Compound 642, N-[3-fluoro-5-[4-(oxetan-3-yl)piperazin-1-yl]phenyl]-1-(2-pyridyl)-1,2,4-triazol-3-amine] | 1 to 10 | 10 to 100
Cc1cc(Nc2ncn(-c3ccccc3)n2)cc(Nc2nccs2)c1 [Compound 643, 5-methyl-N3-(1-phenyl-1,2,4-triazol-3-yl)-N1-thiazol-2-yl-benzene-1,3-diamine] | 10 to 100 | ≤ 1
Cc1cc(Nc2ncn(-c3cccc(C(F)(F)F)c3)n2)cc(OCCn2cccn2)c1 [Compound 644, N-[3-methyl-5-(2-pyrazol-1-ylethoxy)phenyl]-1-[3-(trifluoromethyl)phenyl]-1,2,4-triazol-3-amine] | 1 to 10 | 10 to 100
COCC1CCN(c2cc(C(F)F)cc(Nc3ncn(-c4cccc(C(F)F)c4)n3)n2)CC1 [Compound 645, 4-(difluoromethyl)-N-[1-[3-(difluoromethyl)phenyl]-1,2,4-triazol-3-yl]-6-[4-(methoxymethyl)-1-piperidyl]pyridin-2-amine] | 1 to 10 | 10 to 100
